Test results taken from patent US20240000847A1, “METHODS” (bluebird bio, Inc., priority 2020, published 2024).
Read-outs that look alike come from different tables or passages of the source.

Legend:
[1] = tested on: bone marrow macrophages; details: mice; for F4/80+ macrophage staining in bone marrow smears (pathology): Ctx dosed at 2×100 mg/kg, FIG. 2B, 100 mg/kg; for F4/80+ macrophage staining in bone marrow smears (pathology) / activation status of macrophages recruited to the bone marrow (FcγRI signal): compared to vehicle; for activation status of macrophages recruited to the bone marrow (FcγRI signal): FIG. 2A bottom panel
Protocol: Immunocompetent mice (C57Bl/6 or Balb/C) were dosed with vehicle of one of four different cyclophosphamide (Cytoxan) regimens including: one dose of 50 mg/kg, one dose of 100 mg/kg, two doses of 50 mg/kg approximately 48 hours apart, and two doses of 100 mg/kg approximately 48 hours apart. Three days following the final dose of the regimen, mouse bone marrow was evaluated for macrophage number and phenotype of. Flow cytometry was used to characterize bone marrow macrophages. Briefly, bone marrow was stained with murine macrophage markers including CD11b, F4/80, CD16 (FcγRIII; marker of activated macrophages), CD32 (FcγRII; inhibitory macrophage marker), CD68, and CD64 (FcγRI; marker of activated macrophages). In addition, bone marrow smears were prepared for pathology analysis and stained with F4/80 to quantify macrophages.

[2] = tested on: hematopoietic stem cells (LSK: lineage negative, Sca1+, ckit+); details: mice, 8.3-25 mg/kg anti-CD117 and anti-CD47 antibodies, two doses of 50 mg/kg cyclophosphamide, vs vehicle or antibodies alone
Protocol: In another experiment, immunocompetent mice (C57Bl/6 or Balb/C) were dosed with 8.3-25 mg/kg of anti-CD117 and anti-CD47 antibodies with or without two doses of 50 mg/kg of cyclophosphamide approximately 48 hours apart. Five to seven days after antibody treatment, mouse bone marrow was analyzed by flow cytometry or plated in methocellulose medium to evaluate impacts on the hematopoietic stem cells. […] FIG. 3.

O=P1(N(CCCl)CCCl)NCCCO1 (centres unmarked) [cyclophosphamide] was tested. Which “increase of macrophage content in the bone marrow” value ([1]; 1 or 2 doses of 50 or 100 mg/kg, three days after final dose, flow cytometry, FIG. 2A top panel) did it give?
The value was “up to 2.5 fold”.

What about the “F4/80+ macrophage staining in bone marrow smears (pathology)” value [1] of the same compound?
Its value is “increased macrophage staining”.

What about the “F4/80+ macrophage staining in bone marrow smears (pathology)” value ([1]; listed as Cyclophosphamide) of the same compound?
Its value is “increase”.

And the “macrophage recruitment in bone marrow compared to vehicle” value ([1]; FIG. 2A top panel)?
Its value is “increased macrophage recruitment”.

What about the “activation status of macrophages recruited to the bone marrow (FcγRI signal)” value [1] of the same compound?
The value was “increased macrophage activation”.

What about the “activation status of macrophages recruited to the bone marrow (FcγRI signal)” value ([1]; listed as Cyclophosphamide) of the same compound?
The value was “enhanced activation status”.

And the “depletion of stem cells (LSK) in the bone marrow” value ([2]; 5-7 days after antibody, FIG. 3 left)?
The value was “enhanced the antibody-mediated depletion”.

And the “number of colony forming cells (CFUs) from bone marrow” value ([2]; methocellulose, FIG. 3 right)?
The value was “reduced the number of colony forming cells”.
